# Values quoted from earlier work in US20240122858A1, “MODIFIED-RELEASE DOSAGE FORMS OF RUXOLITINIB” (SLAYBACK PHARMA LLC, priority 2021, published 2024).
Structure (SMILES),permeability,aqueous solubility (over a pH range of 1-8),solubility in aqueous buffers (free base)
"N#CC[C@H](C1CCCC1)n1cc(-c2ncnc3[nH]ccc23)cn1 [Ruxolitinib phosphate, (3R)-3-cyclopentyl-3-[4-(7H-pyrrolo[2,3-d]-pyrimidin-4-yl)-pyrazol-1-yl]-propanenitrile phosphate]",high permeability,high aqueous solubility,
N#CC[C@H](C1CCCC1)n1cc(-c2ncnc3[nH]ccc23)cn1 [Ruxolitinib],,,sparingly soluble
